The subject of series [1] is epidermoid carcinoma A431 cells. To be noted: cited from earlier work.
Series [2] deals with HS-578T (breast). In words: Cancer cell death assay (LDH release), HS-578T. The note with it: for anti-neoplastic activity (LDH release) / potency compared to NCO-700: dose response (FIG. 7). Format: cell-based, human. The procedure: (§1) 1. Cancer Cell Death Assay
(§2) Cell death was measured quantitatively by the release of a marker intracellular enzyme, lactate dehydrogenase (LDH), from damaged or killed cells. LDH released into the extracellular fluid, was measured 24 hours after drug exposure to cancer cells and the enzyme activity was determined by the method of Decker et al. (J. Immunolog Methods 15:61-99, 1988).
A series of analogs related to NCO-700 were assayed in the cancer cell death assay. […] It should be stressed that these analogs were tested alone, without any added chemotherapeutic agent.
Based on Experiment 1 above, the anti-cancer activity of NCO-700, TOP-008, and analogs, TOP-201, 202, 203, 204, 205, 206, 207, and 007, was tested in cancer cell death assays of human cancer cell line HS-578T. In FIGS. 34 (1,000 cells/well) and 35 (1,500 cells/well), a bar graph indicates the activity of a particular analog as measured by the % LDH released (DMSO, dimethyl sulfoxide=control), with higher values of LDH released indicating greater anti-neoplastic activity. All analogs were tested at a concentration of 25 μM.

The subject of series [3] is pancreatic cancer cell lines ASPC-1 and HS-766T. The series is described as follows: Cancer cell death assay (LDH release), pancreatic lines. Format: cell-based, human. To be noted: 25 μM, 24 hours. The procedure: as §2
As described in Experiment 1, the cancer cell death assays were performed to measure anti-neoplastic activity of the compounds, NCO-700, TOP-001, TOP-003, TOP-005, TOP-006, TOP-008, TOP-009, TOP-010, TOP-012, TOP-013, TOP-015, and TOP-017.
The following cell lines were obtained from the American Type Tissue Culture Laboratory and cultured according to their specifications: Human pancreatic cancer cell lines ASPC-1 and HS-766T.
The results of the experiments are shown in FIG. 32, where a bar graph indicates the activity of a particular analog as measured by the % LDH release stimulated by each analog for 24 hours, with higher values of LDH released indicating greater anti-neoplastic activity (apoptosis). All analogs were tested at a concentration of 25 μM.
A general note: LDH leaks from cells whose membrane has failed.

For another series, the system named is cells. In words: Long-term assay (cell survival assay), toxicity to cells. It counts as cell-based. The note with it: long-term assays (cell survival assay). The procedure: (§3) Cell survival was assayed in cultured tumor cells. From 500-1000 cells per well were plated in 24-welled culture dishes and exposed to drug for seven days. After drug exposure, a computerized cell imaging technique was utilized to ascertain the number of viable cells remaining in each culture. From the data, survival curves were plotted and a ED50 (drug concentration that permits 50% cell survival) were calculated.

In series [4] the test system is cancer cells having multidrug resistance. The series is described as follows: Induction of cell death in cancer / multidrug-resistant cancer cells (comparison compounds). It counts as cell-based. To be noted: data omitted. An excerpt:
The specifically defined present piperazine derivatives having epoxy groups are believed to work through an epoxide group, but E-64 also contains an epoxide group. […] It is believed that not only epoxy group but also a piperazine ring are essential to induction of cell death in cancer. […] Other compounds having similar structures to the present piperazine derivatives, with respect to piperazine rings when present, and epoxy groups, have been tested (data omitted here), but no significant effect was observed, meaning that surprising and unexpected effects on induction of cell death in cancer, i.e., reversing mdr and in inducing death of cancer cells without significant toxicity to normal tissues, which appear to be pharmacologically beyond prevention of metastasis in cancer, are found in the specifically defined present compounds.

For series [5] the following is noted: in vivo; cited from earlier work.
The subject of the next series is breast cancer cell lines. The series is described as follows: Cancer cell death assay (LDH release), breast lines. To be noted: compound alone, 24 hours. Format: cell-based, human. The procedure: as §1, §2
(§4) All cell lines used in the present study were obtained from the American Type Tissue Culture Laboratory and cultured according to their specifications. All were human cancer lines unless otherwise noted. The following cell lines and their tissue of origin used in our studies were:
(§5) The first assays performed measured the anti-neoplastic activity of NCO-700, alone, in cell death assays of a wide variety of human cancer cells. The results of these experiments are shown in FIGS. 1-6, where a dose-response curve of NCO-700 versus % LDH release is plotted, with higher values of LDH released indicating greater anti-neoplastic activity (apoptosis).
(§6) In FIG. 8, a dose-response curve is shown of the effect of TOP-008 on the killing of breast, prostate and colon cell lines.

Series [6] has as its system prostate cancer cell lines. The series is described as follows: Cancer cell death assay (LDH release), prostate lines. Format: cell-based, human. To be noted: compound alone, 24 hours. The procedure:
as §1, §2, §4, §5, §6

Another series has as its system colon cancer cell lines. In words: Cancer cell death assay (LDH release), colon lines. Format: cell-based, human. To be noted: compound alone, 24 hours. The procedure:
as §1, §2, §4, §5, §6

In a further series the test system is WIDR (colon). The series is described as follows: Cancer cell survival assay, WIDR. Format: cell-based, human. The note with it: FIG. 16 versus FIG. 31. The procedure: as §3
The cancer cell survival assay is an important additional in vitro assay to assess the anti-neoplastic activity of compounds as the cells are given a prolonged exposure (seven days) to the drug. FIGS. 9-16 show the effect of increasing the dose of NCO-700 on the survival of a number of cancer cell lines. […] In the figures, the vertical axis is the object area, which is the number of surviving cancer cells calculated by a computer.
(§7) FIGS. 26-31 show the effect of increasing the dose of TOP-008 against a number of cancer cell lines. […] For example, if the activity of NCO-700 and TOP-008 are compared against the human colon cancer cell line WIDR (FIG. 16 in Experiment 1 versus FIG. 31) it is seen that the effective dose of TOP-008 is much lower in this particular assay.

For series [7], the system named is HS-578T (breast). The series is described as follows: Apoptosis detection assay (annexin V / propidium iodide, flow cytometry). Format: cell-based, human. The note with it: 50 μM and 25 μM (FIG. 36). The procedure:
Anti-neoplastic activity of TOP-008 was tested using a commercially available kit, Apoptosis Detection Kit, from R & D SYSTEMS (Minnesota) in which annexin V, a member of the calcum and phospholipid binding proteins, is used to detect apoptosis, following the protocol recommended by the manufacturer. TOP-008 was tested at a concentration of 50 μM, using Human breast cancer cell line HS-578T. Cells were washed in cold PBS twice and resuspended in a small volume of 1× binding buffer. Fluorescein-labeled annexin V and propidium iodide were added to the cells. The cells expressing phosphatidylserine on the outer leaflet of cell membranes bind annexin V and cells with a compromised cell membrane allow propidium iodide to bind to the cellular DNA. The resulting cells when immediately analyzed by flow cytometry can present three potential populations of cells: live cells which will not stain with either fluorochrome, necrotic cells which will stain with both fluorochrome, and cells undergoing apoptosis which will stain only with the annexin V-FITC reagent. Analysis was performed on cytometers equipped with a single laser emitting excitation light at 488 nm. The annexin V-FITC-generated signal was detected in the FITC signal detector (FL1). The results are shown in FIG. 36 in which the […]. […]
In general terms: Flow cytometry measures light scatter and fluorescence of single cells or particles in a stream.

The test system of series [8] is PC-3 (prostate tumor cell line). The series is described as follows: Apoptosis induced DNA fragmentation (agarose gel). Format: cell-based, human. The note with it: PC-3, 25 μM, 48 hours. The procedure: PC-3, a prostate tumor cell line, was treated with 25 μM TOP-008, 50 μM NCO-700, or water for 48 hours. The DNA from each sample was purified by phenol extraction, and the fragmentation was resolved on an agarose gel.

In the next series the test system is cancer cell lines. In words: Cancer cell survival assay, a number of cancer cell lines. Format: cell-based, human. To be noted: FIGS. 26-31, alone. The procedure: as §3, §7

“Also recorded” adds a separate entry of the source. Counter-ions that a name gives are not always drawn. Where a SMILES comes first, the peptide text is derived from it. [ ]: non-standard residue; d: D form. Nle = CCCC[C@H](N)C(=O)O

Take `CCOC(=O)[C@H]1O[C@@H]1C(=O)N[C@@H](CC(C)C)C(=O)NCCC(C)C` [E-64-d]: the cell cycle arrest result in series [1] (A431 cells, chemically defined medium) is on record as “arrested at mitotic metaphase”. In series [1] (Shoji-Kasai et al.), the “effect on growth of cancer cells” value is on record as “slows the growth of cancer cells”.

As for `CC(C)C[C@H](NC(=O)[C@@H]1O[C@H]1C(=O)OCc1ccccc1)C(=O)N1CCN(C/C=C/c2ccccc2)CC1` [TOP-009, Bis[benzyl (2R,3R)-3-[(S)-3-methyl-1-[4-(3-phenyl-2-propenyl)piperazin-1-ylcarbonyl]butylcarbamoyl]oxirane-2-carboxylate] Sulfate], the “anti-neoplastic activity (LDH release) / potency compared to NCO-700” value in the series on HS-578T (breast) [2] (HS-578T, alone) is given as “higher potency”. Also, in [3], the “anti-neoplastic activity (% LDH release) compared with NCO-700” value is reported as “significantly greater activity than NCO-700 itself”.

In the case of `CCCC[C@@H](C=O)NC(=O)[C@H](CC(C)C)NC(=O)[C@H](CC(C)C)NC(C)=O` [Calpain Inhibitor 1, N-acetyl-leu-leu-norleucinal] (Ac-Leu-Leu-[Nle]-aldehyde), the “toxicity to the cells” value in the series on cells was “toxic to the cells”; in the series on cells (listed as Calpain inhibitor I) it was “its toxicity may be an obstacle”. For the same molecule, the “effectiveness in cancer cells having multidrug resistance / induction of cell death” value in series [4] is “slightly effective”.

With `CC(C)C[C@H](NC(=O)[C@@H]1O[C@H]1C(=O)Oc1ccccc1)C(=O)N1CCN(C/C=C/c2ccccc2)CC1` [TOP-013, Bis[phenyl (2R,3R)-3-[(S)-3-methyl-1-[4-(3-phenyl-2-propenyl)piperazin-1-ylcarbonyl]butylcarbamoyl]oxirane-2-carboxylate] Sulfate], the “anti-neoplastic activity (LDH release) / potency compared to NCO-700” value in the series with HS-578T (breast) [2] (HS-578T, alone) was “higher potency”.

Take `COc1cccc2c1C(=O)c1c(O)c3c(c(O)c1C2=O)C[C@@](O)(C(=O)CO)C[C@@H]3O[C@H]1C[C@H](N)[C@H](O)[C@H](C)O1` [adriamycin]: the side effects result in series [5] was “inevitable side effects such as hair loss, weight loss, and liver and kidney damage”.

Consider `CCOC(=O)[C@@H]1O[C@H]1C(=O)N[C@@H](CC(C)C)C(=O)N1CCN(C/C=C/c2ccccc2)CC1` [TOP-008, Bis[ethyl (2R,3R)-3-[(S)-3-methyl-1-[4-(3-phenyl-2-propenyl)piperazin-1-ylcarbonyl]butylcarbamoyl]oxirane-2-carboxylate] Sulfate], for which the “anti-neoplastic activity (LDH release)” value (in the series with breast cancer cell lines; in [6]; with colon cancer cell lines) was “excellent activity” each time. Moreover, in the series on HS-578T (breast) [2] (HS-578T, 25 μM, 1,000 and 1,500 cells/well (FIGS. 34, 35)), the “anti-neoplastic activity (% LDH released)” value was “very good anti-neoplastic activity”. Also, the “kill rate of breast cancer cells relative to NCO-700” value in the series on HS-578T (breast) [2] (HS-578T, alone) is “approximately three-fold”. Also, the “anti-neoplastic activity (LDH release) / potency compared to NCO-700” value with HS-578T (breast) [2] (HS-578T, alone) is “higher potency; also recorded: highest potency”. Besides, the “anti-neoplastic potency relative to NCO-700” value with HS-578T (breast) [2] (conclusion of Experiment 1) is “three-fold”. The “anti-neoplastic activity (% LDH release) compared with NCO-700” value in series [3] is recorded as “significantly greater activity than NCO-700 itself”. In addition, the “effective dose compared with NCO-700” value in the series with WIDR (colon) is “much lower”. Also, the induction of apoptosis result in the series on HS-578T (breast) [7] is “induced apoptosis in human breast cancer cells”. The DNA fragmentation result in [8] is listed as “significant DNA fragmentation”. Besides, in the series on cancer cell lines, the “anti-neoplastic activity (cell survival)” value was “highly active anti-neoplastic agent (apoptosis agent) and in some cases is much more active than NCO-700”.

For the molecule `CC(C)C[C@H](NC(=O)[C@H]1O[C@@H]1C(=O)O)C(=O)NCCCCN=C(N)N` [E-64], the “effectiveness in cancer cells having multidrug resistance / induction of cell death” value in series [4] is recorded as “not to be particularly effective in cancer cells having multidrug resistance”.
